Laboratory results as given in the NIST ThermoML archive (doi:10.1016/j.jct.2015.04.015).
± gives the expanded uncertainty stated by the source.

Conditions: Gas, Rotating-body viscometer developed for low-density gases

Q: For `O=C=O` [carbon dioxide], which viscosity (253.15 K, 100.2 kPa) is on record?
A: The viscosity was 0.01271 ± 5.2e-05 mPa·s.

Q: What about the viscosity (253.15 K, 153 kPa) of the same molecule?
A: Its viscosity is 0.01271 ± 5.2e-05 mPa·s.

Q: What about the viscosity (253.15 K, 200.5 kPa) of the same molecule?
A: The viscosity was 0.01271 ± 5.2e-05 mPa·s.

Q: What about the viscosity (253.15 K, 300.5 kPa) of the same molecule?
A: Its viscosity is 0.01271 ± 5.2e-05 mPa·s.

Q: And the viscosity (253.15 K, 401.4 kPa)?
A: Its viscosity is 0.01272 ± 5.2e-05 mPa·s.

Q: And the viscosity (273.17 K, 100.4 kPa)?
A: The viscosity was 0.01371 ± 5.2e-05 mPa·s.

Q: What about the viscosity (273.17 K, 151.8 kPa) of the same molecule?
A: Its viscosity is 0.0137 ± 5.2e-05 mPa·s.

Q: And the viscosity (273.17 K, 203.4 kPa)?
A: Its viscosity is 0.0137 ± 5.2e-05 mPa·s.

Q: What about the viscosity (273.17 K, 301.7 kPa) of the same molecule?
A: Its viscosity is 0.01371 ± 5.2e-05 mPa·s.

Q: And the viscosity (273.17 K, 399.4 kPa)?
A: The viscosity was 0.01371 ± 5.2e-05 mPa·s.

Q: What about the viscosity (273.17 K, 502.8 kPa) of the same molecule?
A: Its viscosity is 0.01372 ± 5.2e-05 mPa·s.

Q: And the viscosity (298.15 K, 100.8 kPa)?
A: The viscosity was 0.0149 ± 3e-05 mPa·s.

Q: And the viscosity (298.15 K, 150.4 kPa)?
A: Its viscosity is 0.01491 ± 3e-05 mPa·s.

Q: And the viscosity (298.15 K, 201.6 kPa)?
A: The viscosity was 0.0149 ± 3e-05 mPa·s.

Q: And the viscosity (298.15 K, 204.6 kPa)?
A: The viscosity was 0.0149 ± 3e-05 mPa·s.

Q: What about the viscosity (298.15 K, 303.2 kPa) of the same molecule?
A: Its viscosity is 0.01491 ± 3e-05 mPa·s.

Q: What about the viscosity (298.15 K, 303.3 kPa) of the same molecule?
A: Its viscosity is 0.01491 ± 3e-05 mPa·s.

Q: And the viscosity (298.15 K, 400 kPa)?
A: Its viscosity is 0.01493 ± 3e-05 mPa·s.

Q: And the viscosity (298.15 K, 402.9 kPa)?
A: The viscosity was 0.01492 ± 3e-05 mPa·s.

Q: And the viscosity (298.15 K, 498.5 kPa)?
A: The viscosity was 0.01493 ± 3e-05 mPa·s.

Q: And the viscosity (298.15 K, 499.7 kPa)?
A: Its viscosity is 0.01494 ± 3e-05 mPa·s.

Q: What about the viscosity (298.15 K, 502.8 kPa) of the same molecule?
A: Its viscosity is 0.01494 ± 3e-05 mPa·s.

Q: And the viscosity (298.15 K, 604.5 kPa)?
A: Its viscosity is 0.01494 ± 3e-05 mPa·s.

Q: What about the viscosity (323.16 K, 100.8 kPa) of the same molecule?
A: The viscosity was 0.01608 ± 5.1e-05 mPa·s.

Q: And the viscosity (323.16 K, 151.6 kPa)?
A: Its viscosity is 0.01608 ± 5.1e-05 mPa·s.

Q: And the viscosity (323.16 K, 200.9 kPa)?
A: Its viscosity is 0.01609 ± 5.1e-05 mPa·s.

Q: And the viscosity (323.16 K, 304.9 kPa)?
A: Its viscosity is 0.0161 ± 5.1e-05 mPa·s.

Q: And the viscosity (323.16 K, 400.7 kPa)?
A: Its viscosity is 0.0161 ± 5.1e-05 mPa·s.

Q: What about the viscosity (323.16 K, 500.4 kPa) of the same molecule?
A: Its viscosity is 0.01612 ± 5.1e-05 mPa·s.

Q: What about the viscosity (323.16 K, 598.7 kPa) of the same molecule?
A: Its viscosity is 0.01613 ± 5.1e-05 mPa·s.

Q: And the viscosity (373.16 K, 100.4 kPa)?
A: Its viscosity is 0.0184 ± 5e-05 mPa·s.

Q: What about the viscosity (373.16 K, 151.4 kPa) of the same molecule?
A: The viscosity was 0.0184 ± 5e-05 mPa·s.

Q: And the viscosity (373.16 K, 201.1 kPa)?
A: Its viscosity is 0.0184 ± 5e-05 mPa·s.

Q: What about the viscosity (373.16 K, 296.8 kPa) of the same molecule?
A: Its viscosity is 0.01842 ± 5e-05 mPa·s.

Q: And the viscosity (373.16 K, 399.9 kPa)?
A: The viscosity was 0.01843 ± 5e-05 mPa·s.

Q: And the viscosity (373.16 K, 604.9 kPa)?
A: The viscosity was 0.01846 ± 5e-05 mPa·s.

Q: What about the viscosity (373.16 K, 802.6 kPa) of the same molecule?
A: The viscosity was 0.01849 ± 5e-05 mPa·s.

Q: What about the viscosity (423.14 K, 100.2 kPa) of the same molecule?
A: Its viscosity is 0.02065 ± 5e-05 mPa·s.

Q: And the viscosity (423.14 K, 153.3 kPa)?
A: The viscosity was 0.02066 ± 5e-05 mPa·s.

Q: What about the viscosity (423.14 K, 204.1 kPa) of the same molecule?
A: The viscosity was 0.02065 ± 5e-05 mPa·s.

Q: And the viscosity (423.14 K, 302 kPa)?
A: The viscosity was 0.02066 ± 5e-05 mPa·s.

Q: What about the viscosity (423.14 K, 397.6 kPa) of the same molecule?
A: Its viscosity is 0.02068 ± 5e-05 mPa·s.

Q: And the viscosity (423.14 K, 600.4 kPa)?
A: The viscosity was 0.0207 ± 5e-05 mPa·s.

Q: What about the viscosity (423.14 K, 800.8 kPa) of the same molecule?
A: Its viscosity is 0.02073 ± 5e-05 mPa·s.

Q: What about the viscosity (423.14 K, 998.9 kPa) of the same molecule?
A: The viscosity was 0.02077 ± 5e-05 mPa·s.

Q: And the viscosity (473.15 K, 153 kPa)?
A: Its viscosity is 0.02275 ± 5e-05 mPa·s.

Q: And the viscosity (473.15 K, 202.5 kPa)?
A: The viscosity was 0.02277 ± 5e-05 mPa·s.

Q: What about the viscosity (473.15 K, 403.5 kPa) of the same molecule?
A: The viscosity was 0.02278 ± 5e-05 mPa·s.

Q: And the viscosity (473.15 K, 601.1 kPa)?
A: The viscosity was 0.02282 ± 5e-05 mPa·s.

Q: What about the viscosity (473.15 K, 803 kPa) of the same molecule?
A: Its viscosity is 0.02284 ± 5e-05 mPa·s.

Q: What about the viscosity (473.15 K, 997.8 kPa) of the same molecule?
A: Its viscosity is 0.02288 ± 5e-05 mPa·s.

Q: And the viscosity (473.15 K, 1200.9 kPa)?
A: The viscosity was 0.0229 ± 5e-05 mPa·s.

Q: What about the viscosity (473.16 K, 100.1 kPa) of the same molecule?
A: The viscosity was 0.02275 ± 5e-05 mPa·s.
